Data from publication PMC8406319, “The dCache Chemoreceptor TlpA of Helicobacter pylori Binds Multiple Attractant and Antagonistic Ligands via Distinct Sites” (mBio, 2021).
Where a name gives a salt, the structure may show the parent alone.

Key:
H. pylori PMSS1 ΔtlpA = assay: Temporal chemotaxis assay (direction changes), ΔtlpA mutant; type: cell-based, Helicobacter pylori; settings: ligands 0.1-10 mM, controls 50 μM dipyridyl, 10 mM HCl
Method: (§1) Cultures of H. pylori PMSS1 WT and ΔtlpA strains were grown overnight, back-diluted, and then incubated until an OD600 of 0.12 to 0.15 was reached. Cultures were treated with water (Mock) or various concentrations of compounds, as indicated. For panels C and E, the pH of cysteine, thiamine, malic acid, and α-ketoglutarate stocks was adjusted using NaOH to match the pH of the water used for the untreated control. The cells were immediately filmed, and direction changes were counted over a 3-s swimming period in at least 100 cells per treatment from 3 biological replicates. Data are normalized to the values for the untreated control for each strain, as described in Materials and Methods. Error bars represent the standard errors of the means. *, P < 0.05; **, P < 0.01; ***, P < 0.001 (comparisons to the untreated control per strain using two-way ANOVA with Dunnett’s multiple-comparison test).
To determine if chemoattractant responses toward arginine, fumarate, and cysteine were TlpA dependent, the same tracking experiments were repeated with a mutant lacking tlpA (ΔtlpA).
(§2) Swimming behavior assays were done with H. pylori PMSS1 strains grown in BB10 as described above. Cultures grown overnight were diluted to an optical density at 600 nm (OD600) of 0.1 in fresh BB10 and then incubated with shaking as described above until an OD600 of 0.12 to 0.15 was reached. […] The number of direction changes in a bacterial swimming trajectory was enumerated over a 3-s interval to determine whether each putative ligand is sensed as an attractant or repellent or elicits no response ([20], [25][–][30]). […] Each control is sensed by chemoreceptors other than TlpA ([24], [25], [29], [31]). The pH of BB10 upon treatment was independently assessed using a Denver Instruments pH meter. Prior to realizing that chemotactic responses may be due to medium acidification, we resuspended all ligands in pure water. Therefore, to be able to compare the results to those of previous experiments, we continued resuspending acidified ligands in pure water and then adjusting the pH of the resuspended ligand using NaOH. Cultures were filmed immediately after ligand addition at a ×400 magnification using a Hamamatsu C4742-95 digital camera with μManager software (version 1.4.22), mounted on a Nikon Eclipse E600 phase-contrast microscope. For the competition chemotaxis assay, cultures of H. pylori and ligands were prepared as described above. However, 1 min after the addition of a nonchemoactive ligand at a final concentration of 10 mM, a chemoactive ligand was added at a final concentration of 10 mM, and the cultures were then filmed as described above. Videos were relabeled to blind the observer to the strain identity. For each sample, >100 3-s-long bacterial tracks from three independent cultures were analyzed manually to identify stops followed by direction changes. Data for all biological replicates under each condition were combined, and the average number of direction changes in 3 s and the standard error of the mean were calculated. For each strain, data were normalized to the values for the untreated control under each experimental condition. Statistical analysis of the data for treated versus untreated samples was performed using two-way analysis of variance (ANOVA) and Dunnett’s multiple-comparison test.

TlpALBD point mutants = assay: SPR binding affinity of TlpALBD point mutants relative to WT; design: species or system Helicobacter pylori SS1; settings: vs WT
From the text: The periplasmic portion of TlpA (TlpALBD), amino acids 28 to 299, from Helicobacter pylori SS1 was cloned into a pBH4 expression vector (pBH4_TlpALBD) to generate an N-terminal 6×His-tagged construct, with a tobacco etch virus (TEV) protease site, under the control of isopropyl-β-D-thiogalactopyranoside (IPTG) ([19]). […] TlpALBD and all point mutants were purified as described previously by Sweeney et al. ([19]).
Purified TlpALBD was immobilized on a CM5 series S sensor chip, and binding affinities were tested using a Biacore S200 instrument (GE Healthcare) as described previously ([39], [57], [59]). Briefly, proteins were captured using an amine-coupling kit (GE Healthcare), in which the carboxylmethyl dextran matrix of the sensor chip was activated by the injection of a mixture of 0.2 M 1-ethyl-3-[(3-dimethylamino)propyl]-carbodiimide (EDC) and 0.05 M N-hydroxysuccinimide (NHS), followed by the neutralization of the remaining unreacted NHS ester groups by the injection of 1 M ethanolamine-HCl (pH 8.0). Purified TlpALBD was diluted in 10 mM sodium acetate buffer (pH 4.5) at a concentration of 100 μg/ml for immobilization to the chip. A total of 8,400 response units (RU) of TlpALBD were captured on flow cell 2. […] The data sets were analyzed using Biacore S200 evaluation software 2.0.2; sensorgrams were double-reference subtracted.

H. pylori PMSS1 WT = assay: Temporal chemotaxis assay (live-cell video microscopy, direction changes), WT; type: cell-based, Helicobacter pylori
Method: H. pylori chemotactic responses toward the seven putative TlpA-dependent ligands were examined by a live-cell video microscopy assay that measures the temporal chemotaxis response to test ligands. […] Acidic conditions are sensed by chemoreceptors other than TlpA ([24], [29], [31]) and potentially mask chemotactic responses to the ligands being tested.
as §1, with “For panels C and E, the pH of cysteine, thiamine, malic acid, and α-ketoglutarate stocks was adjusted using NaOH to match the pH of the water used for the untreated control.” left out
as §2, with “Prior to realizing that chemotactic responses may be due to medium acidification, we resuspended all ligands in pure water.” left out

TlpALBD = assay: Small-molecule ligand binding array; design: species or system Helicobacter pylori SS1; settings: ligand binding array screen; n = 3
Method: Small-molecule arrays were prepared and performed as previously described ([57]). Briefly, 1 μg of purified TlpALBD in phosphate-buffered saline (PBS) (pH 7.2) was incubated with a molar concentration ratio (4:2:1) of anti-His antibody (Cell Signaling), followed by incubation with a secondary antibody (Thermo Scientific) for signal amplification. The protein-antibody mix was added to an Arrayit Superepoxy III glass substrate array blocked with PBS (pH 7.2) with 1% bovine serum albumin. […] Unbound protein was washed away with PBS with 0.05% Tween. […] Three biological replicates were performed, with a total of 12 data points for each glycan tested. Binding was classified as positive for a ligand if the relative fluorescence unit value was >1-fold above the mean background (defined as the average background of negative-control spots plus 3 standard deviations [SD]) and was statistically significant (P < 0.005 by Student’s t test). Small-molecule array slide preparation and analysis were done according to MIRAGE guidelines ([58]) (outlined in Table S5).
Classification Guidelines
1. Sample: Glycan Binding Sample
Origin: Helico bact er pyl ori SS1; produce d as a reco mbinant His -tagged protein in E.
The preparation of TlpA is exp lained in the Materials and Methods se ct ion: TlpA co nst ruct desi gn and protein purifica tion.
Sample Sample is a His Tagged protein co ntaining only the periplasm ic rece ptor domain, amino […]
Please see Materials and Methods: Li ga nd bi ndi ng arra y.
Proteins were co mplexe d with mouse anti-his antibody, with se co ndary and tertiary Alexa Fluor555 antibodies (rabbit anti-mouse , goat anti-rabbit) at a molar ratio of 4:2:1.
The protein/antibody co mplex was incu bated on ice for 10 mins prior to placi ng on the Assa y array. Arrays were performed with 1 µg of co mplexe d protein incu bated on the array for protoco l 20 min. Arrays were then wash ed 3 times in Array PBS (PBS + 2 mM MgCl2 + 2 mM CaCl2) then dried by ce ntrifugation for 3 min at 300 x g. Sca nning was performed usi ng an Innopsys InnoSca n 1100AL and analyze d usi ng Mapix (Innopsy s). Yes/ no binding was determined by si x posi tive replica te sp ots in three replica te exp eriments. […]
2.2 Small molecule Library […]
descr iption for Compounds printed in the amino aci d/small molecu le array for this st udy are list ed in […]
5.2 Small molecule array with “Map”
The array co nsi sts of triplica te su b-arrays of amino aci ds and sm all moleucl es (24 rows x 10 co lumns) with 400μm sp ot sp aci ng (ce ntre to ce ntre) with a minimum sp ot si ze of 100μm . Each sa mple is printed si x times, with each of the 3 su b-arrays incl uding at least Array layo ut si x negative co ntrol sa mples (print so lution only) and a posi tive co ntrol sa mples […]
Posi tive co ntrols provi de proof of su cce ssf ul immobiliza tion of the amine reagents and provi des for orientation for analysi s.
Sample Arrays are quality co ntrolled by a range of measu res. 1. Each printed array is post print identifica tion sca nned to co nfirm deposi tion of the sa mples on the array su rface prior to neutraliza tion and quality of the remaining sl ide su rface . 2. Post neutralize d sl ides are sca nned again to monitor co ntrol for remaining autofluoresce nce .
1. 6. Detector and Data Processing
Sca nning reso lution: […]
Sca n powers: Low lase r power. […]
analysi s Innopsys MAPIX.

Row | Structure (SMILES) | Chemotactic response of ΔtlpA mutant (H. pylori PMSS1 ΔtlpA) | Change in binding affinity, any point mutant (TlpALBD point mutants) | Chemotactic response (direction changes vs mock) (H. pylori PMSS1 WT; WT, 0.1, 1, 10 mM tested, acidic ligand stocks pH neutralized with NaOH, 10 mM most significant) | Chemotactic response, ligand stock pH not adjusted (H. pylori PMSS1 WT; acidic in solution, unadjusted pH) | Array result (TlpALBD)
1 | Cl [HCl, reference compound] | repellent responses |  |  |  | 
2 | c1ccc(-c2ccccn2)nc1 [dipyridyl, 2,2′-dipyridyl, reference compound] | significant attractant |  |  |  | 
3 | O=C(O)CCC(=O)C(=O)O [α-Ketoglutarate, α-ketoglutaric acid] |  | no appreciable change | no significant direction changes | significant TlpA-independent chemorepellent responses | +
